Article PMC7883873, “Discovery of New Catalytic Topoisomerase II Inhibitors for Anticancer Therapeutics” (Frontiers in Oncology, 2021)

Assays:
full-length human TOP2B = target: T1, full-length human TOP2B (Homo sapiens, UniProt Q02880); assay: EMSA with full-length protein; type: binding; details: 200 µM; 2 µM protein, 300 nM 5ZRF oligo
T1 construct: full-length human TOP2A and TOP2B protein (TopoGEN and Inspiralis respectively); purchased Inspiralis HTB205
Experimental: (§1) EMSA followed the standard protocols as we and others described with minor modifications ([54]–[56]). The double-strand DNA oligo, 5ZRF (AGCCGAGCTGCAGCTCGGCT labeled by IRDye700) was purchased from IDT (Coralville, USA). Human TOP2 (431–1193), TOP2A (TopoGEN) or TOP2B (Inspiralis) proteins were incubated with 300 nM of 5ZRF oligo in a standard 20 µl EMSA reaction in a reaction buffer containing 20 mM HEPES-NaOH, pH 7.4, 2 mM DTT, 3 mM MgCl2, 0.05% NP-40, protease inhibitors, and 0.1 µg poly[dI:dC]. After incubation for 30 min at 37C, reactions were loaded onto 4% non-denatured polyacrylamide gel in 0.5× TBE buffer. The DNA oligo bands were visualized by using the Li-Cor Odyssey 9120 Infrared Imaging System.

full-length human TOP2A = target: T2, full-length human TOP2A (Homo sapiens, UniProt P11388); assay: EMSA with full-length protein; type: binding; details: 200 µM; 2 µM protein, 300 nM 5ZRF oligo
T2 construct: full-length human TOP2A and TOP2B protein (TopoGEN and Inspiralis respectively); purchased TopoGEN TG1001 (human TOP2 assay kit)
Experimental: as §1

phospho-H2AXγ expression = assay: Phospho-H2AXγ expression in multiple cancer cell models; type: cell-based; details: 5 µM, 4 hours
Experimental: (§2) Cell proliferation rates were measured by using the CellTitre 96 AqueousOne kit (Promega) and bromodeoxyuridine (BrdU) assay kit (Millipore) according to the manufacturer’s protocol as we have described ([51]). Cytotoxicity was evaluated by using the commercial kit (CAT# 8078, ThermoFisher). Culture media was collected and used to measure lactate dehydrogenase (LDH) levels by a colorimetric method following the manufacture’s protocol (ThermoFisher). Cell cycling was assessed by using BrdU incorporation into S-phase DNA by using the APC BrdU flow kit (BD Pharmingen; Franklin Lakes, New Jersey) according to the manufacturer’s protocol. 1 mM of BrdU was added to cells and incubated for 6 h. Cells were incubated with anti-BrdU antibody and stained with 7-AAD before processing the cells for flow cytometry ([52]). Immunoblotting assays followed the standard protocol as we have reported ([51]–[53]).

HeLa cells [1] = assay: LDH cytotoxicity assay; type: cell-based; details: 0–20 µM, 48 h
Experimental: as §2

TOP2A [2] = target: T3, TOP2A (Homo sapiens, UniProt P11388); assay: Relaxation and K-DNA decatenation assays of candidates and T60 derivatives (SAR); type: biochemical; parameters: full-length human TOP2A and TOP2B protein (TopoGEN and Inspiralis respectively); purchased TopoGEN TG1001 (human TOP2 assay kit); details: compared with T60
Experimental: The human TOP2 assay kit (#TG1001, TopoGEN, Buena Vista, CO) and TOP2B (HTB205, Inspiralis, UK) were used for K-DNA decatenation assays. […] The reaction was incubated at 37C for 2 h after which 4 µl stop solution (5× buffer is 5% Sarkosyl, 0.125% bromophenol blue, 25% glycerol) was added. The reaction was resolved by electrophoresis on a 0.8% agarose gel at 60 V and stained with 0.5 µg/ml ethidium bromide for 15 min. DNA bands were visualized using a gel imager (Gel Doc™ EZ System) and quantified using the Image Studio™ Lite Quantification Software.
(§3) The human TOP2A and TOP2B were used to perform DNA relaxation assays. […] The reaction was incubated at 37C for 2 h and stopped by adding 2 µl of 10% SDS and 1 µl of 250 mM of EDTA, followed by the addition of 50 µg/ml of proteinase K at 45 C for 1 h. The reaction was then resolved by electrophoresis on a 1% agarose gel at 80 V and stained with 0.5 µg/ml ethidium bromide for 15 min. DNA bands were visualized using a gel imager (Gel Doc™ EZ System) and quantified using the Image Studio™ Lite Quantification Software.

[3] = system: GFP-AR transfected DU145 cells; assay: AR subcellular localization by microscopy; type: cell-based; details: 20 µM, 24 h
TOP2A [4] = target: T3, TOP2A; assay: DNA cleavage assay; type: biochemical; parameters: full-length human TOP2A and TOP2B protein (TopoGEN and Inspiralis respectively); purchased TopoGEN TG1001 (human TOP2 assay kit); details: co-treatment with 200 µM etoposide; 1, 100, 200 µM
Experimental: The reactions were incubated in 37C for 30 min and stopped by adding 2 µl of 10% SDS and 1 µl of 250 mM of EDTA, followed by the addition of 50 µg/ml of proteinase K at 45C for 30 min. The reaction was then resolved by electrophoresis on a 1% agarose gel containing […] ethidium bromide in TAE buffer at 60 V. DNA bands were visualized using a gel imager (Gel Doc™ EZ System) and quantified by using the Image Studio™ Lite Quantification Software.

salmon sperm DNA = assay: Ethidium bromide displacement assay; type: binding; details: increasing doses; 100 µg/ml DNA, 2 µg/ml ethidium bromide
Experimental: Ethidium bromide displacement assay was performed as previously described ([49], [50]) using Amsacrine (mAMSA) as a positive control. In a 20 µl reaction, compounds were mixed with 100 µg/ml of salmon sperm DNA and 2 µg/ml of ethidium bromide in a fluorescence buffer containing 10 mM HEPES, pH 7.9, 100 mM KCl, 5 mM MgCl2, 0.1 mM EDTA, pH 8.0. Triplicate reactions were subjected to fluorescence emission of 590 nm and excitation of 535 nm. Signals were detected by using the Multimode Microplate Reader, Infinite® F500.

AR = assay: Probasin- and PSA-luciferase reporter in 293T cells; type: cell-based; details: 0-20 µM
HeLa cells [5] = assay: Confocal fluorescence microscopy; type: cell-based; details: 20 µM, 48 h
Experimental: Cells were fixed with 4% paraformaldehyde, treated in 0.25% Triton X-100 for 15 min, incubated with F-actin conjugated to Phalloidin-iFluor 488 (Abcam; UK), and mounted with DAPI staining mount (Vector Labs; Burlingame, USA). Cell images were captured by confocal microscopy at 63× magnification (Zeiss; Germany) ([51], [53]).

TOP2A [6] = target: T3, TOP2A; assay: DNA relaxation assay (supercoiled pHOT-1 plasmid); type: biochemical; parameters: full-length human TOP2A and TOP2B protein (TopoGEN and Inspiralis respectively); purchased TopoGEN TG1001 (human TOP2 assay kit)
Experimental: as §3

T3 sequence (P11388 whole entry): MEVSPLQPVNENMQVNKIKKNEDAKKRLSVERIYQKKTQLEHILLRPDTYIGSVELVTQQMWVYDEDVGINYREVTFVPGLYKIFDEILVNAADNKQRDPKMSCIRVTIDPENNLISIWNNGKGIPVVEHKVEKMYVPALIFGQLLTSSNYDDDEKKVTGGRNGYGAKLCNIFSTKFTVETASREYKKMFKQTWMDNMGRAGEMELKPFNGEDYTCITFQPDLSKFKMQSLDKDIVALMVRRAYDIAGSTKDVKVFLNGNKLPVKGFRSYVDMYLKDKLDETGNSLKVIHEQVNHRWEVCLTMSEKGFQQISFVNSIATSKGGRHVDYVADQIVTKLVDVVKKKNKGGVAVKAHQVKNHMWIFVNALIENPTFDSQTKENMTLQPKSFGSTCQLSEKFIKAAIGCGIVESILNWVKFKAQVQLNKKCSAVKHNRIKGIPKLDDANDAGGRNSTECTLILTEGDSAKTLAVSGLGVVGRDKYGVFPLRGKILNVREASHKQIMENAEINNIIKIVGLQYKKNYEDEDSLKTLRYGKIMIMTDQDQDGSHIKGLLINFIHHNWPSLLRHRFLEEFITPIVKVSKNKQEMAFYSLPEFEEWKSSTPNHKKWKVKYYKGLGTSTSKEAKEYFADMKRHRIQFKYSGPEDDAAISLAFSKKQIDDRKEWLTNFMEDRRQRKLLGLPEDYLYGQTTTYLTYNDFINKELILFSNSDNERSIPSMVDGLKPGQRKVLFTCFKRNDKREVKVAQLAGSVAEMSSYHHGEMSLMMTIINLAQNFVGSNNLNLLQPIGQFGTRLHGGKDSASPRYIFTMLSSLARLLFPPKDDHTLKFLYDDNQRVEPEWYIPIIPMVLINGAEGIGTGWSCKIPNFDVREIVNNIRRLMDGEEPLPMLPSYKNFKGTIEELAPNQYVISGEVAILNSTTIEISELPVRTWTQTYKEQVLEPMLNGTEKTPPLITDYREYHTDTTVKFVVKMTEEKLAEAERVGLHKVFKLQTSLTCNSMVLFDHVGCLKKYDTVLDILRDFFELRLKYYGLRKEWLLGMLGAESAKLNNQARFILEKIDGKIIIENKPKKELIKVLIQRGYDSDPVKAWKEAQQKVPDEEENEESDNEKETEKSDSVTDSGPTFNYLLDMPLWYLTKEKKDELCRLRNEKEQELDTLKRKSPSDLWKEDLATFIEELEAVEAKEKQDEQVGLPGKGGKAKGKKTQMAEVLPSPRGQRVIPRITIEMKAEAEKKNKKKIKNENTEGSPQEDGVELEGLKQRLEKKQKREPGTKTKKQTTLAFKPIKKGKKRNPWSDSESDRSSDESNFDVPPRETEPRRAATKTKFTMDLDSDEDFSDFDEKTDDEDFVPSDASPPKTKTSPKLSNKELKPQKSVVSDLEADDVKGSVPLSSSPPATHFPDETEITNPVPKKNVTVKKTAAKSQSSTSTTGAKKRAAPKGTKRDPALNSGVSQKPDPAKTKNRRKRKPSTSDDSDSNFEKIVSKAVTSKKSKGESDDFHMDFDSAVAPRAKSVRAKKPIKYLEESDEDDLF
T1 sequence (Q02880 whole entry): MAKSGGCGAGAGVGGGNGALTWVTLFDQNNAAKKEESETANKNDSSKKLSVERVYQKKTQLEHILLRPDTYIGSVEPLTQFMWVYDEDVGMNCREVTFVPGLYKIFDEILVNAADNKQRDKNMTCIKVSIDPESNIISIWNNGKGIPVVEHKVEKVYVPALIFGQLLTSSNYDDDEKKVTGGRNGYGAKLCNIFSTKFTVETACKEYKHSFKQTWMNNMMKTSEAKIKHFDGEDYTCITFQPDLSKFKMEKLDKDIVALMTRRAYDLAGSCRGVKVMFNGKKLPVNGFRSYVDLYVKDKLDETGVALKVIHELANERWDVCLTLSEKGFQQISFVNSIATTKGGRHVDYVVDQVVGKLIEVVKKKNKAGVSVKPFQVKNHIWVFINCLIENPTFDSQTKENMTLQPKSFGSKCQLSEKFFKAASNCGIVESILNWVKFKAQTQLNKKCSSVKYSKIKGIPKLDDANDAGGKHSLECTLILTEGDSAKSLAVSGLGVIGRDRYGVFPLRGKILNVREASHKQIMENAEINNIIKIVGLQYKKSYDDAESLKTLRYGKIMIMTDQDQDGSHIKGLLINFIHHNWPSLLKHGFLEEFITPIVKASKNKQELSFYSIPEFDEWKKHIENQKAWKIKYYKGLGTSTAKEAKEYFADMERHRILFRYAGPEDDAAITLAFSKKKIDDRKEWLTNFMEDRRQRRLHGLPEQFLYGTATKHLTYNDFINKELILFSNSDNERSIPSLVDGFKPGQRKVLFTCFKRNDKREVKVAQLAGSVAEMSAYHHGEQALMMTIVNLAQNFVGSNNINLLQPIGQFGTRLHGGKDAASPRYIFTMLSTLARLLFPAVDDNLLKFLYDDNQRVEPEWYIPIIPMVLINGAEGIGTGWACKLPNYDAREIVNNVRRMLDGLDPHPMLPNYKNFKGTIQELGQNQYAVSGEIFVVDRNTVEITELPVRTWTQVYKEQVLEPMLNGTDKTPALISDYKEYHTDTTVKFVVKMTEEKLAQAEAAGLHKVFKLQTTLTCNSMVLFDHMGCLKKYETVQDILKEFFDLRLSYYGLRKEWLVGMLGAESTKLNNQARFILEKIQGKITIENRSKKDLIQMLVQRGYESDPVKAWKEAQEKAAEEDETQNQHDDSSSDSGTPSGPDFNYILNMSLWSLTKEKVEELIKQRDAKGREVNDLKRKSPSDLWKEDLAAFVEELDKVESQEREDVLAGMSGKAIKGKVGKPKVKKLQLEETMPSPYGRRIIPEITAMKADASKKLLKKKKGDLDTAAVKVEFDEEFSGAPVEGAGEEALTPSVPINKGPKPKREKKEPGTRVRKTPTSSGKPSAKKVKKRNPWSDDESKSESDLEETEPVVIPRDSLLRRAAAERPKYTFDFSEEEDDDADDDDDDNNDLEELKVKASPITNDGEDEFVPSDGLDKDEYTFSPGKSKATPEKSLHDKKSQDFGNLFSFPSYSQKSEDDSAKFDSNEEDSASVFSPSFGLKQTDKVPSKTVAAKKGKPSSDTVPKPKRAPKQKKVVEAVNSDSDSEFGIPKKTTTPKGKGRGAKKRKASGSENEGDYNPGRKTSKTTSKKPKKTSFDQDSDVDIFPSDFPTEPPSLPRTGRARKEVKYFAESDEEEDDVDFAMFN
T2 sequence (P11388 whole entry): as the sequence (P11388 whole entry) above

SMILES: O=C(Nc1ccc(Nc2ccccc2)cc1)c1ccc[nH]c1=S [T60]
- Interruption of mobility retarded band, full-length TOP2B (full-length human TOP2B): interrupted
- Interruption of mobility retarded band, full-length TOP2A (full-length human TOP2A): interrupted
- DNA damage (phospho-H2AXγ expression) in all cell models (phospho-H2AXγ expression): not accompanied by DNA damage
- Cytotoxicity (LDH release) (HeLa cells [1]): low cytotoxicity
- Activity on TOP2 (TOP2A [2]): less active
- Nuclear localization of GFP-AR, DU145 [3]: reduced nuclear localization
- Prevention of etoposide-induced DNA cleavage, TOP2A (TOP2A [4]): prevented
- Fluorescence of ethidium bromide/DNA complex (DNA intercalation) (salmon sperm DNA): does not intercalate with DNA
- Luciferase activities driven by probasin and PSA promoters, AR (AR): inhibited luciferase activities
- Cell morphology (HeLa cells [5]): enlarged cell bodies and nuclei
- Inhibition of TOP2A activity changing supercoiled into relaxed plasmid DNA (TOP2A [6]; Figure 3B): inhibited
- IC50 (TOP2A [6]; densitometry of SC bands, read-out: IC50, inhibition of TOP2A plasmid DNA relaxation): ~4.7 µM
